In patent US20170130064A1, “NOVEL POLYSILOXANE-BASED FOULING-RELEASE COATS COMPRISING POLY(OXYALKYLENE)-MODIFIED ALCOHOLS” (HEMPEL A/S, priority 2014, published 2017) one finds Surface tension data, which are given here for 10 substances.

Data set [1] can be described thus: Surface tension above critical micelle concentration in water (pendant drop method). The format is physicochemical. To be noted: 5 wt % of the compound in demineralized water, picture 5 seconds after drop. How it is done:
The surface tension of a liquid/air interface can be determined by the “pendant drop method” as described in “Encyclopedia of Surface and Colloid Science” by Marcel Dekker, 2002.
Samples were prepared as 5 wt % of the compound in demineralized water mixed in a 50 mL PE bottle. At 5 wt % it is ensured that concentrations are well above the critical micelle concentration. The samples were left over-night on a shaking table to ensure saturation and/or mixing. The measurements by “pendant drop method” were performed with DataPhysics OCA-15 pus, Dynamic Contact Angle, using software SCA202 V 4.5.8. The needle was a Disposable needle SNP-D 165/137, and the volume drop was 15 microliters.
The picture from which the surface tension is calculated is taken 5 seconds after the drop is forced out of the syringe.

For data set [2] the following is noted: From supplier data sheet; cited from earlier work.

Read-outs that look alike come from different tables or passages of the source. Marks after values point to notes of the source that are not given here.

With PEG-12 stearate, in data set [1], the Surface tension turned out to be 35 mN/m.
On the same count and under the same terms, with PEG-20 sorbitan monostearate the figure was 43 mN/m.
PEG-7 lauryl alcohol: the Surface tension in data set [2] is 29* mN/m.
As to “PEG-11 branched C12-C14 secondary alcohol”, in data set [2], the Surface tension is recorded as 30* mN/m.
PEG-12 nonylphenol, branched registered a Surface tension in data set [1] of 32 mN/m.
Regarding PEG-6 decyl alcohol, the Surface tension in data set [2] was 26.6* mN/m.
In the case of PEG-22 oleyl alcohol, in data set [2], the Surface tension is recorded as 44* mN/m.
For the substance “PEG-8 branched C12-C14 secondary alcohol”, the Surface tension in data set [2] is 27* mN/m.
In turn, PEG-20 oleyl ether showed a Surface tension in data set [1] of 36 mN/m.
Still for that read-out and setting: then PEG-6 stearate, with 43 mN/m.
